Test systems include PC-3 prostate; SR leukemia; SNB-75 CNS; SK-MEL-2 melanoma; MALME-3M melanoma; K-562 leukemia; HCT-116 colon; UACC-257 melanoma; TK-10 renal; CAKI-1 renal.
Holding throughout (experiment): NCI-60 cell line screen, 48 h

Where “and” joins values, the source holds several entries; their conditions need not be identical. Identical values can stand only once.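 How tested: cells in 96-well plates exposed to compound for 48 hours at five concentrations. The concentration for 50% growth inhibition is given as GI50. TGI denotes the concentration required for complete inhibition of growth.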

Turning to `CCOc1cc(C(C)(C)C)ccc1C1=N[C@@](C)(c2ccc(Cl)cc2)[C@@](C)(c2ccc(Cl)cc2)N1C(=O)N1CCN(CCS(C)(=O)=O)CC1`, the GI50 in the test on PC-3 prostate was 2.01 µM; in the test with SR leukemia, 0.198 µM; in the test on SNB-75 CNS it was 2.51 µM; in the test on SK-MEL-2 melanoma, 5.29 µM; in the test on MALME-3M melanoma, 0.535 µM; with K-562 leukemia it was 3.9 µM. The GI50 with HCT-116 colon is 0.804 µM; in the test on UACC-257 melanoma, 1.1 µM; with TK-10 renal, 3.12 µM; with CAKI-1 renal, 0.81 µM. Also, the TGI stood at 6.25 µM in the test on PC-3 prostate; 5.26 µM in the test on SR leukemia; 14.9 µM in the test with SNB-75 CNS; 18.3 µM in the test with SK-MEL-2 melanoma; 6.07 µM in the test on MALME-3M melanoma; 21.7 µM with K-562 leukemia. Also, the TGI in the test with HCT-116 colon is 4.73 µM; with UACC-257 melanoma, 3.72 µM; in the test on TK-10 renal, 10.3 µM; in the test on CAKI-1 renal it was 6.48 µM.
As to `CCCCCCNC(=O)Oc1ccc(/C(=C(\C)c2ccccc2)c2ccc(OCCN(CC)CC)cc2)cc1`, the GI50 in the test with PC-3 prostate was 2.81 µM; with SR leukemia, 1.09 µM; in the test on SNB-75 CNS, 3.54 µM; in the test with SK-MEL-2 melanoma, 7.5 µM; with MALME-3M melanoma, 3.59 µM; in the test with K-562 leukemia, 1.36 µM. In addition, the GI50 with HCT-116 colon was 2.08 µM; in the test on UACC-257 melanoma, 1.21 µM; in the test with TK-10 renal it was 6.74 µM; in the test on CAKI-1 renal, 2.74 µM. Also, the TGI amounted to 9.21 µM with PC-3 prostate; 3.18 µM in the test on SR leukemia; 10.5 µM in the test with SNB-75 CNS; 14.8 µM in the test with SK-MEL-2 melanoma; 10.1 µM in the test with MALME-3M melanoma; 5.31 µM in the test on K-562 leukemia. Besides, the TGI in the test with HCT-116 colon was 7.39 µM; with UACC-257 melanoma it was 3.17 µM; in the test on TK-10 renal it was 13.5 µM; in the test on CAKI-1 renal, 8.92 µM.
As to `COc1cc(C2c3cc4c(cc3[C@@H](Nc3ccc(N)cc3)C3COC(=O)[C@H]23)OCO4)cc(OC)c1O` (some centres undefined), the TGI in the test on PC-3 prostate is 16.5 µM; with SR leukemia, 0.682 µM and 6.81 µM; with SK-MEL-2 melanoma it was 18.9 µM; in the test on MALME-3M melanoma, 19.7 µM; with K-562 leukemia, 46.3 µM; in the test with HCT-116 colon, 23 µM. Further, the TGI is 28 µM in the test with UACC-257 melanoma; 23.7 µM in the test on TK-10 renal; 0.903 µM and 5.93 µM with CAKI-1 renal. The GI50 is 0.151 µM in the test on SR leukemia; 0.347 µM in the test on SNB-75 CNS; 0.849 µM in the test on MALME-3M melanoma; 0.973 µM in the test on HCT-116 colon; 0.326 µM with CAKI-1 renal.
For `O=C(CC(=O)c1ccccc1)c1ccccc1`, the GI50 with PC-3 prostate is 25.9 µM; with SR leukemia, 11.7 µM; in the test on SNB-75 CNS, 22.9 µM; in the test on SK-MEL-2 melanoma, 87 µM; with MALME-3M melanoma, 23.2 µM; with K-562 leukemia, 8.31 µM. For the same compound, the GI50 was 16.6 µM with HCT-116 colon, 23.6 µM in the test on UACC-257 melanoma, 20.5 µM in the test on TK-10 renal and 20.1 µM in the test on CAKI-1 renal. The TGI with PC-3 prostate is greater than 100 µM; with SR leukemia, greater than 100 µM; with SNB-75 CNS it was greater than 100 µM; with SK-MEL-2 melanoma, greater than 100 µM; with MALME-3M melanoma, 64.1 µM; with K-562 leukemia, greater than 100 µM. Besides, the TGI in the test on HCT-116 colon is greater than 100 µM; with UACC-257 melanoma, 84.5 µM; in the test on TK-10 renal, 93.7 µM; in the test with CAKI-1 renal it was 66 µM.
In the case of `O=C(Nc1ccc(I)cc1F)c1cc(I)ccc1O`, the GI50 in the test with PC-3 prostate was 1.14 µM; in the test on SR leukemia it was 1.38 µM; in the test on SNB-75 CNS, 0.752 µM; in the test on SK-MEL-2 melanoma, 0.319 µM; in the test on MALME-3M melanoma, 0.32 µM; with K-562 leukemia, 0.434 µM. The GI50 is 0.768 µM in the test with HCT-116 colon, 0.73 µM in the test on UACC-257 melanoma, 1.49 µM in the test on TK-10 renal and 0.492 µM in the test with CAKI-1 renal. Moreover, the TGI in the test with PC-3 prostate was 9.76 µM; in the test on SR leukemia, greater than 100 µM; in the test on SNB-75 CNS it was 6.75 µM; with SK-MEL-2 melanoma, 1.59 µM; in the test on MALME-3M melanoma it was 1.52 µM; in the test on K-562 leukemia, greater than 100 µM. Further, the TGI with HCT-116 colon was 3.35 µM; in the test on UACC-257 melanoma, 2.6 µM; in the test on TK-10 renal, greater than 64.5 µM; with CAKI-1 renal it was 4.11 µM.
As to `CN(C)CCNc1nc2ccccc2c2c(=O)c3ccccc3sc12`, the GI50 in the test on PC-3 prostate was 1.84 µM; in the test on SR leukemia it was 1.66 µM; in the test on SNB-75 CNS, 1.74 µM; with SK-MEL-2 melanoma, 1.78 µM; with MALME-3M melanoma it was 1.86 µM; in the test with K-562 leukemia, 1.52 µM. Also, the GI50 in the test on HCT-116 colon is 1.41 µM; with UACC-257 melanoma, 1.76 µM; in the test on TK-10 renal it was 2.52 µM; with CAKI-1 renal it was 3.11 µM. Also, the TGI in the test with PC-3 prostate amounted to 4.13 µM; in the test with SR leukemia, 4.69 µM; with SNB-75 CNS it was 6.94 µM; with SK-MEL-2 melanoma, 3.41 µM; in the test on MALME-3M melanoma, 4.05 µM; in the test on K-562 leukemia it was 3.77 µM. The TGI in the test with HCT-116 colon was found to be 2.79 µM; in the test with UACC-257 melanoma, 3.53 µM; in the test with TK-10 renal, 6.15 µM; in the test on CAKI-1 renal it was 14.5 µM.
Turning to `COc1ccc(/C=N/N=C(\[O-])c2ccncc2)cc1F.COc1ccc(/C=N\N=C(/[O-])c2ccncc2)cc1F.[Cu+2]`, the GI50 was 16.8 µM in the test on PC-3 prostate; 16.8 µM in the test with SR leukemia; 14.6 µM with SNB-75 CNS; 23 µM with SK-MEL-2 melanoma; 25.9 µM with MALME-3M melanoma; 24.6 µM in the test on K-562 leukemia. Further, the GI50 was 27 µM in the test on HCT-116 colon, 17.9 µM in the test with UACC-257 melanoma, 19.9 µM in the test on TK-10 renal and 38.6 µM in the test on CAKI-1 renal. Moreover, the TGI in the test on PC-3 prostate is 35.1 µM; in the test on SR leukemia, 69.6 µM; with SNB-75 CNS, 28.2 µM; in the test on SK-MEL-2 melanoma it was 53.2 µM; in the test with MALME-3M melanoma, greater than 100 µM; in the test with K-562 leukemia, greater than 100 µM. The TGI is greater than 100 µM in the test on HCT-116 colon, 40.2 µM in the test with UACC-257 melanoma, 48 µM in the test on TK-10 renal and greater than 100 µM with CAKI-1 renal.

(Values after PubChem BioAssay (NCI).)
